From the supplement of paper PMC5579334

Experiments:
HS-PSS [1] = assay: relative IC50 (inflection point of fitted dose-response curve, CellTox-Green cytotoxicity, 72 h; top asymptote may be below 50%); higher = less potent
How it was run: (§1)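 For 72 h at 37 °C, MPNST cell lines and primary human Schwann cells were exposed in 384-well plates to five 10-fold compound dilutions. CellTox-Green, added before seeding at a final 1:1000 dilution, gave fluorescence from DNA released by disrupted cells. Signals were scaled to vehicle and positive-control wells, cultures failing plate quality control were left out, and four-parameter logistic fits were applied. Relative IC50 and drug sensitivity score were derived from the fits, with IC50 censored at the top concentration.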

STS26T [2] = assay: as above
How it was run: as §1

HSC2 [3] = assay: as above
How it was run: as §1

ST8814 [4] = assay: as above
How it was run: as §1

HSC1 [5] = assay: as above
How it was run: as §1

YST-1 = assay: relative IC50 (inflection point of fitted dose-response curve, CellTiter-Glo viability, 72 h; top asymptote may be below 50% inhibition); higher = less potent
How it was run: (§2)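 MPNST cell lines and primary human Schwann cells were seeded at 750–1000 cells per well into 384-well plates preprinted with each compound at five concentrations in 10-fold steps, then incubated 72 h at 37 °C, 5% CO2. CellTiter-Glo ATP luminescence gave viability, scaled between vehicle and positive-control wells, with duplicates averaged where present. Curves were fitted with a four-parameter logistic model. Percent inhibition refers to the top concentration, while drug sensitivity score and relative IC50, censored at the top concentration, come from these fits.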

HS-PSS [6] = assay: as above
How it was run: as §2

STS26T [7] = assay: as above
How it was run: as §2

HS-Sch-2 = assay: as above
How it was run: as §2

HSC2 [8] = assay: as above
How it was run: as §2

S462 = assay: as above
How it was run: as §2

HSC1 [9] = assay: as above
How it was run: as §2

ST8814 [10] = assay: as above
How it was run: as §2

S1507-2 = assay: as above
How it was run: as §2

Row | SMILES | relative IC50 (HS-PSS [1]) [nM] | relative IC50 (STS26T [2]) [nM] | relative IC50 (HSC2 [3]) [nM] | relative IC50 (ST8814 [4]) [nM] | relative IC50 (HSC1 [5]) [nM] | relative IC50 (YST-1) [nM] | relative IC50 (HS-PSS [6]) [nM] | relative IC50 (STS26T [7]) [nM] | relative IC50 (HS-Sch-2) [nM] | relative IC50 (HSC2 [8]) [nM] | relative IC50 (S462) [nM] | relative IC50 (HSC1 [9]) [nM] | relative IC50 (ST8814 [10]) [nM] | relative IC50 (S1507-2) [nM]
1 | CCN1CCN(c2ccc(Nc3cc(N(C)C(=O)Nc4c(Cl)c(OC)cc(OC)c4Cl)ncn3)cc2)CC1 [NVP-BGJ398] | > 1000 | > 1000 | > 1000 | > 1000 | > 1000 | > 1000 | > 1000 | > 1000 | > 1000 | > 1000 | > 1000 | > 1000 |  | 
2 | COc1cc2c(Oc3ccc4[nH]c(C)cc4c3F)ncnc2cc1OCCCN1CCCC1 [Cediranib] | > 1000 | > 1000 |  |  | > 1000 | > 1000 |  | > 1000 | > 1000 | > 1000 | > 1000 |  | > 1000 | 
3 | COc1ccc(C2=N[C@@H](c3ccc(Cl)cc3)[C@@H](c3ccc(Cl)cc3)N2C(=O)N2CCNC(=O)C2)c(OC(C)C)c1 [Nutlin-3] | > 10000 | > 10000 | > 10000 |  | > 10000 | 1410 |  |  | > 10000 | 1220 | > 10000 | 1490 | 2050 | 
4 | CC/C(=C(\c1ccccc1)c1ccc(OCCN(C)C)cc1)c1ccccc1 [Tamoxifen] | > 10000 |  | > 10000 | 2490 | > 10000 | 3250 | 3900 |  | 2300 | 3370 |  |  | 3340 | 3950
5 | Cc1ccc(-n2nc(C(C)(C)C)cc2NC(=O)Nc2ccc(OCCN3CCOCC3)c3ccccc23)cc1 [Doramapimod] |  | > 10000 | > 10000 | > 10000 | > 10000 | 667 | 1640 | > 10000 | 2330 | 1760 |  | 3010 | > 10000 | > 10000
6 | O=C(c1ccc(OCCN2CCCCC2)cc1)c1c(-c2ccc(O)cc2)sc2cc(O)ccc12 [Raloxifene] |  | 3800 | > 10000 | 3430 | > 10000 | 1820 | 1130 | 3280 | 1810 | 1840 |  | 3100 | 2940 | 3100
7 | CN(C)C/C=C/C(=O)Nc1cc2c(Nc3ccc(F)c(Cl)c3)ncnc2cc1O[C@H]1CCOC1 [Afatinib] | > 1000 | > 1000 | > 1000 | > 1000 | > 1000 | > 1000 | 148 | > 1000 |  | > 1000 | > 1000 | > 1000 | > 1000 | 
8 | CC(C)(C)Cn1c(N)nc2ccc(-c3[nH]c(C(C)(C)C)nc3-c3ccc(F)cc3)nc21 [Ralimetinib] | > 10000 | > 10000 | > 10000 | > 10000 | > 10000 | 115 | 4090 | 2920 | 3330 | 474 |  | 2330 | 1560 | 2140
9 | CC(C)N(CCCNC(=O)Nc1ccc(C(C)(C)C)cc1)C[C@H]1O[C@@H](n2cc(Br)c3c(N)ncnc32)[C@H](O)[C@@H]1O [SGC0946] | 2490 | > 10000 | > 10000 | 3070 | > 10000 | 3670 | 1940 | > 10000 | 3000 |  |  |  | 3450 | 2090
10 | CC1=C2C[C@H]3[C@@H](CC=C4C[C@@H](O)CC[C@@]43C)[C@@H]2CC[C@]12O[C@@H]1C[C@H](C)CN[C@H]1[C@H]2C [Cyclopamine] |  | > 10000 | > 10000 | > 10000 | > 10000 |  |  | > 10000 |  | > 10000 | > 10000 | > 10000 | > 10000 | 
11 | Cc1c(C(=O)Nc2ccc(N3C[C@@H](C)O[C@@H](C)C3)nc2)cccc1-c1ccc(OC(F)(F)F)cc1 [Erismodegib] |  | > 10000 |  | > 10000 |  |  |  |  |  | > 10000 | > 10000 | > 10000 | > 10000 | 
12 | CN(C)/N=N/c1[nH]cnc1C(N)=O [Dacarbazine] | > 10000 | > 10000 | > 10000 | > 10000 | > 10000 | > 10000 | > 10000 |  | > 10000 | > 10000 |  | > 10000 | > 10000 | > 10000
13 | Cc1c(N)nc([C@H](CC(N)=O)NC[C@H](N)C(N)=O)nc1C(=O)N[C@H](C(=O)N[C@H](C)[C@@H](O)[C@H](C)C(=O)N[C@H](C(=O)NCCc1nc(-c2nc(C(=O)NCCC[S+](C)C)cs2)cs1)[C@@H](C)O)[C@@H](O[C@@H]1O[C@@H](CO)[C@@H](O)[C@H](O)[C@@H]1O[C@H]1O[C@H](CO)[C@@H](O)[C@H](OC(N)=O)[C@@H]1O)c1c[nH]cn1 [Bleomycin] |  | 328 |  | 2850 | > 10000 | 594 | 835 | 1670 | 923 | 284 | 2270 | 580 | 1620 | 
14 | CNC(=O)c1ccccc1Sc1ccc2c(/C=C/c3ccccn3)n[nH]c2c1 [Axitinib] | > 10000 | 1380 |  |  |  | 972 | 2580 | 1510 | 1700 | 694 | 933 | 1200 | 1360 | 
15 | COc1nc(N)nc2c1ncn2[C@@H]1O[C@H](CO)[C@@H](O)[C@@H]1O [Nelarabine] | > 10000 | > 10000 |  | > 10000 | > 10000 | > 10000 | > 10000 | > 10000 | > 10000 | > 10000 | > 10000 | > 10000 | > 10000 | 
